Test results taken from the CATMoS acute toxicity set (Mansouri et al. 2021).

Assay: GHS categories as the set defines them, by LD50: 1 up to 5, 2 up to 50, 3 up to 300, 4 up to 2000, 5 above 2000 mg/kg
Settings: rat; in vivo; po

Work on `CCc1c(Cc2ccc(-c3ccccc3-c3nn[nH]n3)cc2)c(=O)nc2nc[nH]n12` yielded a GHS category of 4.

In the case of `CCCCC(CC)COP(=O)(Oc1ccccc1)Oc1ccccc1` (stereo unspecified), the GHS category is reported as 5.

In the case of `CCCC(=O)OCCC(C)CCCC(C)C` (stereo unspecified), the GHS category is reported as 5.

`C[Si]1(C)O[Si](C)(C)O[Si](C)(C)O[Si](C)(C)O[Si](C)(C)O1` showed a GHS category of 5.

In the case of `O=c1cc(-c2ccccc2)c2ccc(OCCCN3CCC(c4ccccc4)CC3)cc2[nH]1`, the GHS category is reported as 4.

For `c1coc(CNc2[nH]cnc3ncnc2-3)c1`, the GHS category was 5.

For `COc1cc(O)c2c(=O)oc(CO)cc2c1`, the GHS category was 4.

Work on `CCCCCCCCCCCCCCCCCC` yielded a GHS category of 5.

With `C=C(C)C(=O)OCCc1ccccc1` the GHS category was 5.

Work on `CC(C)(O)C(=O)c1ccc(Cc2ccc(C(=O)C(C)(C)O)cc2)cc1` yielded a GHS category of 5.

`CO[C@@]1(NC(=O)C(C(=O)O)c2ccc(O)cc2)C(=O)N2C(C(=O)O)=C(CSc3nnnn3C)CO[C@@H]21` (stereo partly specified) showed a GHS category of 5.

For `O=C1CC(Nc2ccc([N+](=O)[O-])cc2)=NN1c1c(Cl)cc(Cl)cc1Cl`, the GHS category was 5.

`CC(CCc1ccccc1)NCC(O)c1ccc(O)c(C(N)=O)c1` (stereo unspecified) gave a GHS category of 5.

`Cc1ncc(COP(=O)(O)O)c(CN)c1O` gave a GHS category of 5.

Compound `C/C=C/C=C/CCCCCCCO` has a GHS category of 5.

Compound `CC(=O)CCC=C(C)CC/C=C(\C)CC/C=C(\C)CCC=C(C)C` has a GHS category of 5.

Compound `CCCCCCCCCCCCCC(=O)Nc1ccc(Cc2ccccn2)c([N+](=O)[O-])c1` has a GHS category of 3.

For `CCOC(C)(C)C`, the GHS category was 5.

`Nc1nc2c(ncn2[C@@H]2O[C@H](COP(=O)(O)O)[C@@H](O)[C@H]2O)c(=O)[nH]1` gave a GHS category of 5.

For `CNc1cnn(-c2cccc(C(F)(F)F)c2)c(=O)c1Cl`, the GHS category was 5.

Compound `CSC(=O)c1cccc2nnsc12` has a GHS category of 5.

Compound `CC(C)NP1(=S)OCc2cc([N+](=O)[O-])ccc2O1` (stereo unspecified) has a GHS category of 3.

With `CCCCCCCCCCCCO[PH](=O)OCCCCCCCCCCCC` the GHS category was 5.

`CC(C(=O)C(N)=O)c1ccc(N2Cc3ccccc3C2=O)cc1` (stereo unspecified) gave a GHS category of 5.

Work on `COP(=O)(NC(=O)C(Cl)Cl)SC` (stereo unspecified) yielded a GHS category of 4.

In the case of `O=C(Nc1cc(Cl)c(NC(=O)c2cc3ccccc3c(N=Nc3cc(C(F)(F)F)ccc3Cl)c2O)cc1Cl)c1cc2ccccc2c(N=Nc2cc(C(F)(F)F)ccc2Cl)c1O`, the GHS category is reported as 5.

Work on `Cc1ccc(OC(N)=O)c(C(=O)Oc2ccccc2)c1` yielded a GHS category of 5.

`CC(=O)N(C)C(=O)Oc1cccc2c1OCO2` gave a GHS category of 4.

`NC(=O)N(CO)CO` gave a GHS category of 5.

Work on `COc1ccc([C@@H]2CC(=O)c3c(O)cc(O[C@@H]4O[C@H](CO[C@@H]5O[C@@H](C)[C@H](O)[C@@H](O)[C@H]5O)[C@@H](O)[C@H](O)[C@H]4O)cc3O2)cc1O` yielded a GHS category of 5.

Compound `CCCCCCCCO` has a GHS category of 5.

For `CCOc1ccccc1NC(=O)C(=O)Nc1ccccc1CC`, the GHS category was 5.

Compound `O=C1C2C3CC(C(Br)C3Br)C2C(=O)N1CCN1C(=O)C2C3CC(C(Br)C3Br)C2C1=O` (stereo unspecified) has a GHS category of 5.

For `CC(C)=CCOC1=C(C(=O)Nc2ccccn2)N(C)S(=O)(=O)c2cc(Cl)sc21`, the GHS category was 2.

Compound `O=C(Nc1ccc(NC(=O)c2cc3ccccc3c(N=Nc3ccc(Cl)cc3[N+](=O)[O-])c2O)c(Cl)c1)c1cc2ccccc2c(N=Nc2ccc(Cl)cc2[N+](=O)[O-])c1O` has a GHS category of 5.

In the case of `CCCCCCCCCCCCCCCCCOS(=O)(=O)O`, the GHS category is reported as 4.

With `CNC(=O)C(=NNc1ccccc1[N+](=O)[O-])C(C)=O` the GHS category was 5.

With `CCCCCCCCCCCCCCCC(=O)OCC(CC)CCCC` (stereo unspecified) the GHS category was 5.

`CC(C)(C)c1ccc(OP(Oc2ccc(C(C)(C)C)cc2C(C)(C)C)Oc2ccc(C(C)(C)C)cc2C(C)(C)C)c(C(C)(C)C)c1` gave a GHS category of 5.

For `CC(C)OC[C@H]1CO[C@@](Cn2cncn2)(c2cc3cc(Cl)cc(Cl)c3o2)O1`, the GHS category was 4.

In the case of `O=C(NC(=O)c1ccccc1Cl)Nc1ccc(OC(F)(F)F)cc1`, the GHS category is reported as 5.

Compound `CO/N=C(/C1=NOCCO1)c1ccccc1Oc1ncnc(Oc2ccccc2Cl)c1F` has a GHS category of 5.

Work on `Brc1nc[nH]c1Br` yielded a GHS category of 4.

Compound `CCCCCCCCCCCCCCCC(=O)O[C@@H]1C[C@@H](C(=O)O)N(C(=O)CCCCCCCCCCCCCCC)C1` has a GHS category of 5.

`CN1C(=O)C(C)(C)Oc2cc(C(=O)c3ccc(Cl)cc3)ccc21` gave a GHS category of 5.

Work on `O=C(O)c1cccc2cccc(-c3cccc4cccc(C(=O)O)c34)c12` yielded a GHS category of 5.

In the case of `C=Cc1ccc(O)c(C=C)c1`, the GHS category is reported as 5.

`COc1cc(OC)c2oc(C3(Cn4cncn4)OCCO3)cc2c1` showed a GHS category of 4.

For `CN1C(=O)CCc2c(OCCCN3CCC(Cc4ccccc4)CC3)cccc21`, the GHS category was 4.

Compound `CC(C)CCOC(=O)C=Cc1ccccc1` has a GHS category of 5.

In the case of `Cc1ccc(C(=O)Oc2ccc(C(O)CNC(C)(C)C)cc2OC(=O)c2ccc(C)cc2)cc1` (stereo unspecified), the GHS category is reported as 5.

`Cc1nnc(SCCCSc2nnnn2C)o1` gave a GHS category of 4.

For `FC(F)CCl`, the GHS category was 5.

`CSCC[C@H](NC(=O)CCSC(=O)c1ccccc1)C(=O)OC(C)C` showed a GHS category of 5.

`O=C1CCCCCN1C(=O)c1cccc(C(=O)N2CCCCCC2=O)c1` showed a GHS category of 5.

`OCCn1c(C=Cc2nc3ccccc3[nH]2)nc2ccccc21` showed a GHS category of 5.

With `CCN(CC)CCC#N` the GHS category was 4.

Work on `O=C(c1ccc(F)cc1)c1cc(I)ccc1Cl` yielded a GHS category of 5.

`Cn1nnnc1SCCCC(=O)NC1CCCCC1` gave a GHS category of 4.

`CCCCCNC(=O)c1ccccc1` showed a GHS category of 5.

Compound `CCCNC(=O)c1sc(-c2ccc(OC)c(OC)c2)nc1C` has a GHS category of 5.

`CC(C)=CCC(C#N)(CCN(C)C)Cc1cccc2ccccc12` (stereo unspecified) showed a GHS category of 4.

For `OCC(O)COC1CCCCC1` (stereo unspecified), the GHS category was 5.

For `O=S(=O)(O)OC1C(OS(=O)(=O)O)C(OS(=O)(=O)O)C(OS(=O)(=O)O)C(OS(=O)(=O)O)C1OS(=O)(=O)O` (stereo unspecified), the GHS category was 5.

In the case of `COc1ccccc1OC(=O)c1ccccc1Nc1cccc(C)c1C`, the GHS category is reported as 5.

In the case of `CCCCCCCSCCCCN1CCCCCC1=O`, the GHS category is reported as 5.

In the case of `CN1CN(C)CN(C)C1`, the GHS category is reported as 4.

Compound `COc1ccc(C(=O)NCc2ccc(OCCN(C)C)cc2)cc1OC` has a GHS category of 5.

`COC(=O)C(F)(F)C(F)(F)C(F)(F)OC(F)=C(F)F` showed a GHS category of 3.

`COCC1CN(c2ccc(OCc3cccc(C#N)c3)cc2)C(=O)O1` (stereo unspecified) showed a GHS category of 5.

`CCCCCCCC/C=C\CCCCCCCC(=O)OC[C@H](O)[C@H]1OC[C@H](OC(=O)CCCCCCC/C=C\CCCCCCCC)[C@H]1OC(=O)CCCCCCC/C=C\CCCCCCCC` showed a GHS category of 5.

`CCCN(CCC)c1c([N+](=O)[O-])cc(S(N)(=O)=O)cc1[N+](=O)[O-]` gave a GHS category of 5.

For `Cc1c(Cl)c(=O)oc2cc(OP(=O)(OCCCCCl)OCCCCCl)ccc12`, the GHS category was 3.

In the case of `COc1ccccc1NC(=O)c1cc2ccccc2c(N=Nc2ccc(C(N)=O)cc2)c1O`, the GHS category is reported as 5.

Work on `CCCC1CCC(=O)O1` (stereo unspecified) yielded a GHS category of 5.

Work on `CCCCCCCCCCN(C)C` yielded a GHS category of 5.

Compound `CCCBr` has a GHS category of 5.

`O=C1c2ccccc2C(=O)C1c1ccc2ccccc2n1` showed a GHS category of 5.

With `CC(C)OP(O)(=S)OC(C)C` the GHS category was 4.

In the case of `CCCc1c(Cc2ccc(-c3ccccc3-c3nn[nH]n3)cc2)c(OCCOC)nc2ncnn12`, the GHS category is reported as 4.

For `Cc1ccc2c(c1)c(-c1ccccc1)nn2CCCN(C)C`, the GHS category was 4.

`Cc1ccc(O)c(/N=N/c2ccccc2[N+](=O)[O-])c1` gave a GHS category of 5.

Compound `CNc1ccc(C(=O)O)cc1[N+](=O)[O-]` has a GHS category of 5.

In the case of `C[C@]12C[C@H]3O[C@H]3CC1CCC1C2CC[C@]2(C)C(=O)[C@@H](N3CCCC3)CC12` (stereo partly specified), the GHS category is reported as 5.

For `CCCCCCCCCCCCCC(=O)O`, the GHS category was 5.

`CC1(C)O[C@@H]2C[C@H]3[C@@H]4CCC5=CC(=O)CC[C@]5(C)[C@@]4(F)[C@@H](O)C[C@]3(C)[C@]2(C(=O)CCl)O1` gave a GHS category of 5.

With `COc1c2ccoc2cc2oc(=O)ccc12` the GHS category was 5.

With `OB(O)c1cc(F)c(F)c(F)c1` the GHS category was 4.

`CC(C)OC(=O)CCCCCCCCC(=O)OC(C)C` showed a GHS category of 5.

`CC(=O)OCC(=O)[C@@]1(O)CC[C@H]2[C@@H]3C[C@H](C)C4=CC(=O)C=C[C@]4(C)[C@H]3[C@@H](O)C[C@@]21C` showed a GHS category of 5.

Work on `CC(=O)OCC1=C(C(=O)O)N2C(=O)[C@@H](NC(=O)[C@H](N)c3ccccc3)[C@H]2SC1` yielded a GHS category of 5.

In the case of `CCCNC(=O)c1cnc2cc(C)ccn2c1=O`, the GHS category is reported as 3.

Compound `CCCCCCCCCCCCCCCCCCOC(=O)CCc1cc(C(C)(C)C)c(O)c(C(C)(C)C)c1` has a GHS category of 5.

With `COc1cc(-c2cc(OC)cc(C(C)(C)C)c2O)c(O)c(C(C)(C)C)c1` the GHS category was 5.

Compound `CN1CC(c2ccn[nH]2)CC2c3cccc4[nH]cc(c34)CC21` (stereo unspecified) has a GHS category of 4.

`CCCNC(=O)c1cnc2ccccn2c1=O` showed a GHS category of 3.

`O=C(Nc1ccc(NC(=O)c2cc3ccccc3c(N=Nc3cc(Cl)ccc3Cl)c2O)cc1)c1cc2ccccc2c(N=Nc2cc(Cl)ccc2Cl)c1O` showed a GHS category of 5.

In the case of `Nc1nc2c(s1)CC(N)CC2` (stereo unspecified), the GHS category is reported as 4.

In the case of `CCCCCCCC/C=C\CCCCCCCC(=O)OCC(COC(=O)CCCCCCC/C=C\CCCCCCCC)OC(=O)CCCCCCC/C=C\CCCCCCCC`, the GHS category is reported as 5.

Work on `CCC1COC(=O)O1` (stereo unspecified) yielded a GHS category of 5.

In the case of `NC1=NC(=O)CC(=O)N1`, the GHS category is reported as 5.

`CNC(=O)Oc1cccc2c1OC(C)(C(C)(C)C)O2` (stereo unspecified) gave a GHS category of 4.

`CC(=O)OCC1=C(C(=O)O)N2C(=O)C(NC(=O)Cc3cccs3)C2SC1` (stereo unspecified) gave a GHS category of 5.

`Nc1nccnc1C(=O)O` gave a GHS category of 5.

In the case of `CCCCN(c1nc(NCCCN(CCN(CCCNc2nc(N(CCCC)C3CC(C)(C)N(C)C(C)(C)C3)nc(N(CCCC)C3CC(C)(C)N(C)C(C)(C)C3)n2)c2nc(N(CCCC)C3CC(C)(C)N(C)C(C)(C)C3)nc(N(CCCC)C3CC(C)(C)N(C)C(C)(C)C3)n2)c2nc(N(CCCC)C3CC(C)(C)N(C)C(C)(C)C3)nc(N(CCCC)C3CC(C)(C)N(C)C(C)(C)C3)n2)nc(N(CCCC)C2CC(C)(C)N(C)C(C)(C)C2)n1)C1CC(C)(C)N(C)C(C)(C)C1`, the GHS category is reported as 5.

`C/C=C(\C)C(=O)O` showed a GHS category of 5.

For `CC1CC(NC(N)=O)NC(=O)N1` (stereo unspecified), the GHS category was 5.

Compound `C=C(C)C(=O)OCC(CC)CCCC` (stereo unspecified) has a GHS category of 5.

`OC[C@H]1O[C@@H](n2cnc3c(NC[C@H](O)COc4cccc5ccccc45)ncnc32)[C@H](O)[C@@H]1O` showed a GHS category of 4.

For `NC(=O)Oc1ccc(Cl)cc1C(=O)Oc1ccccc1`, the GHS category was 5.

Compound `C=C(C)C(=O)OCCOCCOCCOCC` has a GHS category of 5.
